For 5 compounds, Activity, EC50 and Tm results are on record in ChEMBL document CHEMBL1152238, “Perylene side chains modulate G-quadruplex conformation in biologically relevant DNA sequences” (Bioorg Med Chem, 2008).

Assay [1] in a line: Binding affinity to double stranded pu27 sequence of c-myc DNA assessed as G-quadruplex formation at 14 uM at 25 degC after 30 mins during thermal cycling by circular dichroism spectroscopy.
Assay [2] is filed under the species Homo sapiens. Nature of the assay: Binding affinity to 2GGG sequence of human telomeric DNA assessed as stabilization of dimeric form of G-quadruplex DNA at 95 degC for 5 mins by electrophoretic mobility shift assay. (A gel shift assay detects complexes by their altered migration in electrophoresis.)
The nature of assay [3]: Binding affinity to pu27 sequence of c-myc DNA assessed as G-quadruplex formation at 90 degC […] after 10 mins by electrophoretic mobility shift assay.
Assay [4] in a line: Binding affinity to 2GGG sequence of human telomeric DNA assessed as intramolecular folding leading to G-quadruplex formation at 25 degC after 30 mins by electrophoretic mobility shift assay.
For assay [5], the species on record is Homo sapiens. As to the kind of experiment: Binding affinity to 4GGG sequence of human telomeric DNA assessed as G-quadruplex stabilization at 25 degC after 30 mins by electrophoretic mobility shift assay in presence of Li+ ions.
Assay [6] is filed under the species Homo sapiens. Nature of the assay: Binding affinity to 42GGG sequence of human telomeric DNA assessed as G-quadruplex formation at 90 degC after 10 mins by electrophoretic mobility shift assay.
The species named for assay [7] is Homo sapiens. Nature of the assay: Binding affinity to double stranded 4GGG sequence of human telomeric DNA assessed as G-quadruplex formation at 0.1 to 10 uM at 37 degC after 24 hrs by electrophoretic mobility shift assay.
Assay [8] can be described thus: Binding affinity to double stranded pu27 sequence of c-myc DNA assessed as intramolecular folding leading to G-quadruplex formation at 0.1 to 10 uM at 95 degC after 24 hrs by electrophoretic mobility shift assay.
The species named for assay [9] is Homo sapiens. Nature of the assay: Binding affinity to 42GGG sequence of human telomeric DNA assessed as G-quadruplex formation at 25 degC upto 20 uM after 30 mins by electrophoretic mobility shift assay.
For assay [10], the system named is Nucleic Acid. Nature of the assay: Binding affinity to negatively supercoiled Escherichia coli pBR322 DNA assessed as DNA intercalation at 20 to 50 uM at pH 6 after 30 mins by DNA unwinding assay. Type of assay: nucleic-acid assay.
Assay [11] is filed under the species Homo sapiens. Nature of the assay: Binding affinity to 2GGG sequence of human telomeric DNA assessed as G-quadruplex formation at 25 degC upto 15 uM after 30 mins by electrophoretic mobility shift assay.
The nature of assay [12]: Binding affinity to 1GGG sequence of human telomeric DNA assessed as intramolecular folding leading to G-quadruplex formation at 25 degC after 30 mins by electrophoretic mobility shift assay.
Assay [13] can be described thus: Binding affinity to pu27 sequence of c-myc DNA assessed as G-quadruplex stabilization at 25 degC after 30 mins at 25 degC by electrophoretic mobility shift assay in presence of Li+ ions.
Assay [14] is filed under the species Homo sapiens. Nature of the assay: Binding affinity to 2GGG sequence of human telomeric DNA assessed as G-quadruplex formation at 90 degC upto 15 uM after 10 mins by electrophoretic mobility shift assay.
For assay [15], the species on record is Homo sapiens. As to the kind of experiment: Binding affinity to 1GGG sequence of human telomeric DNA assessed as G-quadruplex stabilization at 25 degC after 30 mins by electrophoretic mobility shift assay in presence of Li+ ions.
For assay [16], the species on record is Homo sapiens. Nature of the assay: Binding affinity to 2GGG sequence of human telomeric DNA assessed as G-quadruplex formation at 25 degC upto 15 uM after 24 hr by electrophoretic mobility shift assay.
Assay [17] can be described thus: Binding affinity to double stranded pu27 sequence of c-myc DNA assessed as intramolecular folding leading to G-quadruplex formation at 0.1 to 10 uM at 37 degC after 24 hrs by electrophoretic mobility shift assay.
Assay [18] concerns Nucleic Acid. As to the kind of experiment: Binding affinity to negatively supercoiled Escherichia coli pBR322 DNA assessed as DNA intercalation at 10 to 20 uM at pH 8 after 30 mins by DNA unwinding assay. The assay is classed as nucleic-acid assay.
Assay [19] is filed under the species Homo sapiens. As to the kind of experiment: Binding affinity to 4GGG sequence of human telomeric DNA assessed as G-quadruplex formation at 14 uM at 25 degC after 30 mins during thermal cycling by circular dichroism spectroscopy. For orientation: Circular dichroism is the unequal absorption of left and right circularly polarised light.
For assay [20], the species on record is Homo sapiens. Nature of the assay: Binding affinity to 2GGG sequence of human telomeric DNA assessed as G-quadruplex stabilization at 25 degC after 30 mins by electrophoretic mobility shift assay in presence of Li+ ions.
The species entered for assay [21] is Homo sapiens. As to the kind of experiment: Binding affinity to 4GGGtail sequence of human telomeric DNA assessed as G-quadruplex formation at 0.1 to 10 uM at 37 degC after 24 hrs by electrophoretic mobility shift assay.
The species entered for assay [22] is Homo sapiens. Nature of the assay: Binding affinity to 4GGG sequence of human telomeric DNA assessed as G-quadruplex formation at 14 uM at 25 degC after 30 mins by circular dichroism spectroscopy in presence of K+ ions.
For assay [23], the species on record is Homo sapiens. As to the kind of experiment: Binding affinity to unfolded 4GGG sequence of human telomeric DNA assessed as G-quadruplex formation at 25 degC by circular dichroism spectroscopy in presence of Li+ ions.
In another assay the test system is Escherichia coli. As to the kind of experiment: Binding affinity to negatively supercoiled Escherichia coli pBR322 DNA assessed as self-aggregation at 10 to 20 uM at 37 degC after 30 mins by DNA unwinding assay.
The nature of assay [24]: Binding affinity to pu27 sequence of c-myc DNA assessed as intramolecular folding leading to G-quadruplex formation at 25 degC after 30 mins by electrophoretic mobility shift assay.
The species named for assay [25] is Homo sapiens. Nature of the assay: Binding affinity to 4GGG sequence of human telomeric DNA assessed as intramolecular folding leading to G-quadruplex formation at 25 degC after 30 mins by electrophoretic mobility shift assay.
For assay [26], the species on record is Homo sapiens. As to the kind of experiment: Binding affinity to 1GGG sequence of human telomeric DNA assessed as G-quadruplex formation at 14 uM at 25 degC after 30 mins by circular dichroism spectroscopy.
The species entered for assay [27] is Homo sapiens. Nature of the assay: Binding affinity to 4GGG sequence of human telomeric DNA assessed as melting temperature at 14 uM at 25 degC after 30 mins by circular dichroism spectroscopy in presence of K+ ions.
The species named for assay [28] is Homo sapiens. Nature of the assay: Binding affinity to 2GGG sequence of human telomeric DNA assessed as G-quadruplex formation at 14 uM at 25 degC after 30 mins by circular dichroism spectroscopy.
Assay [29] in a line: Binding affinity to double stranded pu27 sequence of c-myc DNA assessed as melting temperature at 14 uM at 25 degC after 30 mins by circular dichroism spectroscopy in presence of K+ ions.

The source made the active and inactive calls. The calls are words filed in the database; no cut-off is given here. A value given as a limit tells only on which side of the number the result lay.

Consider `CN(C)CCN1C(=O)c2ccc3c4ccc5c6c(ccc(c7ccc(c2c37)C1=O)c64)C(=O)N(CCN(C)C)C5=O`, for which the result (in [1]; in the assay listed under Homo sapiens [2]; in the assay listed under Homo sapiens [5]; in the assay listed under Homo sapiens [6]; in the assay filed under Homo sapiens [9]; in the assay on Nucleic Acid [10]) was Active. For the same compound, the result (in the assay filed under Homo sapiens [11]; in [13]; in the assay listed under Homo sapiens [14]; in the assay listed under Homo sapiens [15]; in the assay filed under Homo sapiens [16]; in the assay on Nucleic Acid [18]) was Active. The result in the assay listed under Homo sapiens [20] and in the assay filed under Homo sapiens [22] was Active. The result (in [3]; in the assay listed under Homo sapiens [7]; in assay [8]; in [17]; in the assay filed under Homo sapiens [19]; in the assay listed under Homo sapiens [21]) was inactive. Besides, the EC50 (as a rule, the concentration needed to bring the measured effect to its halfway point) stood at 4 µM in [4] and 8.7 µM in assay [12].
Consider `O=C1c2ccc3c4ccc5c6c(ccc(c7ccc(c2c37)C(=O)N1CCN1CCCCC1)c64)C(=O)N(CCN1CCCCC1)C5=O`, for which the result (in assay [1]; in the assay filed under Homo sapiens [2]; in the assay listed under Homo sapiens [23]; in the assay listed under Homo sapiens [5]; in the assay on Nucleic Acid [10]; in the assay listed under Homo sapiens [11]) was Active. The result (in [13]; in assay [24]; in the assay listed under Homo sapiens [14]; in the assay filed under Homo sapiens [15]; in the assay filed under Homo sapiens [16]; in the assay listed under Homo sapiens [20]) was Active. The outcome in the assay listed under Homo sapiens [25], in the assay listed under Homo sapiens [21] and in the assay filed under Homo sapiens [22] was Active. For the same compound, the outcome (in assay [3]; in the assay on Escherichia coli; in the assay listed under Homo sapiens [6]; in the assay listed under Homo sapiens [7]; in the assay filed under Homo sapiens [9]; in the assay filed under Homo sapiens [19]) was inactive. The EC50 is 90 µM in assay [4] and above 100 µM in assay [12].
Consider `C[N+](C)(C)CCN1C(=O)c2ccc3c4ccc5c6c(ccc(c7ccc(c2c37)C1=O)c64)C(=O)N(CC[N+](C)(C)C)C5=O`, for which the outcome (in assay [3]; in the assay listed under Homo sapiens [7]; in the assay listed under Homo sapiens [26]; in the assay filed under Homo sapiens [28]) was inactive. Moreover, the concentration giving a half-maximal response (EC50) came out at 12 µM in assay [4] and 10.8 µM in assay [12]. Further, the outcome (in the assay listed under Homo sapiens [5]; in the assay on Nucleic Acid [10]; in [13]; in the assay filed under Homo sapiens [15]; with Nucleic Acid [18]; in the assay listed under Homo sapiens [19]) was Active. Also, the result in the assay listed under Homo sapiens [20] and in the assay filed under Homo sapiens [22] was Active. Moreover, the Tm was determined as 64 °C in the assay filed under Homo sapiens [27] and 83 °C in [29].
Turning to `c1cc2c3ccc4c5c(ccc(c6ccc7c(c1CN(CCN1CCCCC1)C7)c26)c53)CN(CCN1CCCCC1)C4`, the result (in the assay listed under Homo sapiens [23]; in the assay listed under Homo sapiens [5]; in the assay on Nucleic Acid [10]; in [13]; in [24]; in the assay filed under Homo sapiens [15]) was Active. For the same compound, the result in the assay filed under Homo sapiens [20], in the assay listed under Homo sapiens [25] and in the assay listed under Homo sapiens [22] was Active. Besides, the result (in assay [3]; in the assay with Escherichia coli; in the assay listed under Homo sapiens [6]; in the assay filed under Homo sapiens [7]; in the assay filed under Homo sapiens [9]; in the assay listed under Homo sapiens [19]) was inactive. In addition, the 50% effective concentration (EC50) in assay [4] is 20 µM; in assay [12] it was 25 µM.
Regarding `O=C1c2ccc3c4ccc5c6c(ccc(c7ccc(c2c37)C(=O)N1CCNCCO)c64)C(=O)N(CCNCCO)C5=O`, the result (in assay [3]; in the assay filed under Homo sapiens [7]; in the assay filed under Homo sapiens [19]) was inactive. Also, the EC50 in [4] is 3.8 µM; in assay [12], 11 µM. Further, the outcome (in the assay listed under Homo sapiens [5]; in the assay listed under Homo sapiens [6]; in the assay filed under Homo sapiens [9]; in the assay on Nucleic Acid [10]; in assay [13]; in the assay listed under Homo sapiens [15]) was Active. For the same compound, the outcome with Nucleic Acid [18], in the assay listed under Homo sapiens [20] and in the assay listed under Homo sapiens [22] was Active.
